Measurements as given in ChEMBL document CHEMBL1144073, “A cytotoxic triterpene saponin from the root bark of Aralia dasyphylla” (J Nat Prod, 1999).
Values after ≈ are worked out from the molar mass of the structure shown.

What was measured:
KB = assay: Cytotoxicity against human KB cells; assay type: functional, cell-based
HeLa = assay: Cytotoxicity against human HeLa S3 cells; assay type: functional, cell-based

SMILES	IC50 (KB)	IC50 (HeLa)
CC1(C)CC[C@]2(C(=O)O[C@@H]3O[C@H](CO)[C@@H](O)[C@H](O)[C@H]3O)CC[C@]3(C)C(=CC[C@@H]4[C@@]5(C)CC[C@H](O[C@@H]6O[C@H](C(=O)O)[C@@H](O)[C@H](O[C@@H]7O[C@H](CO)[C@@H](O)[C@H](O)[C@H]7O)[C@H]6O[C@@H]6O[C@H](CO)[C@H](O)[C@H](O)[C@H]6O)C(C)(C)C5CC[C@]43C)[C@H]2C1 (stereo partly specified)	1.2 µg/mL (≈ 1.07 µM)	0.02 µg/mL (≈ 0.0179 µM)
Nc1ccn([C@@H]2O[C@H](CO)[C@@H](O)[C@@H]2O)c(=O)n1 [CYTARABINE]	0.81 µg/mL (≈ 3.33 µM)	0.23 µg/mL (≈ 0.946 µM)
O=c1[nH]cc(F)c(=O)[nH]1 [FLUOROURACIL]	0.93 µg/mL (≈ 7.15 µM)	0.44 µg/mL (≈ 3.38 µM)
